Results: the supplement of paper PMC10883282

Tests used:
Assay in all cases: relative viability vs DMSO control (72 h) (fraction); higher = more viable cells
G401 = system: G401
How it was run: (§1)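 ATPLite readings, expressed as percent growth and averaged over up to triplicate wells, provided relative viability. Before reading, sarcoma cell lines seeded in 384-well plates to reach 80–90% confluence received 2.5 µl of serially diluted compound after 24 h, from source plates of 10 mM to 0.0002 mM. Plates were held 72 h at 37 °C, 5% CO2, with 0.1% DMSO as vehicle and a 5 µM positive control. The data were rescaled to 1 for full and 0 for none.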

KHOS-240S = system: KHOS-240S
How it was run: as §1

SW684 = system: SW684
How it was run: as §1

SK-LMS-1 = system: SK-LMS-1
How it was run: as §1

SW872 = system: SW872
How it was run: as §1

SW1353 = system: SW1353
How it was run: as §1

SYO-1 = system: SYO-1
How it was run: as §1

HS729 = system: HS729
How it was run: as §1

A204 = system: A204
How it was run: as §1

SK-ES-1 = system: SK-ES-1
How it was run: as §1

SW982 = system: SW982
How it was run: as §1

MES-SA = system: MES-SA
How it was run: as §1

CC(C)Oc1ccc(-c2nn([C@@H](C)c3oc4ccc(F)cc4c(=O)c3-c3cccc(F)c3)c3ncnc(N)c23)cc1F [Umbralisib]
Details	relative viability
A204, 0.00017 µM	1.08
A204, 0.00051 µM	1.11
A204, 0.00152 µM	1.12
A204, 0.00457 µM	1.12
A204, 0.01372 µM	1.08
A204, 0.04115 µM	1.09
A204, 0.1235 µM	1.08
A204, 0.3704 µM	1.07
A204, 1.111 µM	0.986
A204, 3.333 µM	1.02
A204, 10 µM	0.9
G401, 0.00017 µM	1.02
G401, 0.00051 µM	1.068
G401, 0.00152 µM	1.09
G401, 0.00457 µM	1.05
G401, 0.01372 µM	1.03
G401, 0.04115 µM	1.01
G401, 0.1235 µM	1.02
G401, 0.3704 µM	0.99
G401, 1.111 µM	0.988
G401, 3.333 µM	1.05
G401, 10 µM	1.1
HS729, 0.00017 µM	1.09
HS729, 0.00051 µM	1.09
HS729, 0.00152 µM	1.05
HS729, 0.00457 µM	1.04
HS729, 0.01372 µM	1.05
HS729, 0.04115 µM	0.991
HS729, 0.1235 µM	1.04
HS729, 0.3704 µM	1.01
HS729, 1.111 µM	0.942
HS729, 3.333 µM	0.936
HS729, 10 µM	0.895
KHOS-240S, 0.00017 µM	1.05
KHOS-240S, 0.00051 µM	1.08
KHOS-240S, 0.00152 µM	1.09
KHOS-240S, 0.00457 µM	1.08
KHOS-240S, 0.01372 µM	1.07
KHOS-240S, 0.04115 µM	1.06
KHOS-240S, 0.1235 µM	1.07
KHOS-240S, 0.3704 µM	1.06
KHOS-240S, 1.111 µM	1.03
KHOS-240S, 3.333 µM	1
KHOS-240S, 10 µM	0.909
MES-SA, 0.00017 µM	0.946
MES-SA, 0.00051 µM	0.928
MES-SA, 0.00152 µM	0.94
MES-SA, 0.00457 µM	0.981
MES-SA, 0.01372 µM	0.957
MES-SA, 0.04115 µM	0.9436
MES-SA, 0.1235 µM	0.943
MES-SA, 0.3704 µM	0.945
MES-SA, 1.111 µM	0.937
MES-SA, 3.333 µM	0.922
MES-SA, 10 µM	0.747
SK-ES-1, 0.00017 µM	1.07
SK-ES-1, 0.00051 µM	1.07
SK-ES-1, 0.00152 µM	1.05
SK-ES-1, 0.00457 µM	1.07
SK-ES-1, 0.01372 µM	1.06
SK-ES-1, 0.04115 µM	1.09
SK-ES-1, 0.1235 µM	1.04
SK-ES-1, 0.3704 µM	1.04
SK-ES-1, 1.111 µM	1.04
SK-ES-1, 3.333 µM	1.08
SK-ES-1, 10 µM	1.02
SK-LMS-1, 0.00017 µM	1.07
SK-LMS-1, 0.00051 µM	1.06
SK-LMS-1, 0.00152 µM	1.06
SK-LMS-1, 0.00457 µM	1.04
SK-LMS-1, 0.01372 µM	1.05
SK-LMS-1, 0.04115 µM	1.05
SK-LMS-1, 0.1235 µM	1.03
SK-LMS-1, 0.3704 µM	1.06
SK-LMS-1, 1.111 µM	1.02
SK-LMS-1, 3.333 µM	0.875
SK-LMS-1, 10 µM	0.752
SW684, 0.00017 µM	1.13
SW684, 0.00051 µM	1.17
SW684, 0.00152 µM	1.16
SW684, 0.00457 µM	1.21
SW684, 0.01372 µM	1.2
SW684, 0.04115 µM	1.19
SW684, 0.1235 µM	1.16
SW684, 0.3704 µM	1.06
SW684, 1.111 µM	0.966
SW684, 3.333 µM	0.9274
SW684, 10 µM	0.882
SW872, 0.00017 µM	1.09
SW872, 0.00051 µM	1.09
SW872, 0.00152 µM	1.1
SW872, 0.00457 µM	1.08
SW872, 0.01372 µM	1.11
SW872, 0.04115 µM	1.087
SW872, 0.1235 µM	1.07
SW872, 0.3704 µM	1.07
SW872, 1.111 µM	1.09
SW872, 3.333 µM	1.095
SW872, 10 µM	1.04
SW982, 0.00017 µM	1.03
SW982, 0.00051 µM	1.078
SW982, 0.00152 µM	1.07
SW982, 0.00457 µM	1.06
SW982, 0.01372 µM	1.05
SW982, 0.04115 µM	1.067
SW982, 0.1235 µM	1.07
SW982, 0.3704 µM	1.079
SW982, 1.111 µM	1.063
SW982, 3.333 µM	1.08
SW982, 10 µM	1.12
SW1353, 0.00017 µM	1.03
SW1353, 0.00051 µM	1.03
SW1353, 0.00152 µM	1.032
SW1353, 0.00457 µM	1.06
SW1353, 0.01372 µM	1.03
SW1353, 0.04115 µM	1
SW1353, 0.1235 µM	1.01
SW1353, 0.3704 µM	0.959
SW1353, 1.111 µM	0.97
SW1353, 3.333 µM	0.946
SW1353, 10 µM	0.8866
SYO-1, 0.00017 µM	1.04
SYO-1, 0.00051 µM	1.02
SYO-1, 0.00152 µM	1.03
SYO-1, 0.00457 µM	1.03
SYO-1, 0.01372 µM	1.03
SYO-1, 0.04115 µM	0.995
SYO-1, 0.1235 µM	1.01
SYO-1, 0.3704 µM	1.02
SYO-1, 1.111 µM	0.975
SYO-1, 3.333 µM	0.968
SYO-1, 10 µM	0.897
